Results published in patent US6653455B1, “Crystallization of doxorubicin hydrochloride” (Mercian Corporation, priority 1998, dated 2003).
Counter-ions that a name gives are not always drawn. Marks after values point to notes of the source that are not given here.

Assays:
Format in all cases: physicochemical
[1] = Solubility test (dissolving time in water); settings: 50 mg sample in 5 ml water, 25° C., about 600 rounds/minute stirring, time until completely dissolved; hydrochloride
Description: A beaker of 20 ml (minor diameter: 30 mm) was charged with 5 ml of water and then 50 mg of a DOX.HCl crystal sample, and the sample was stirred at 25° C. and about 600 rounds/minute by means of a magnetic stirrer (diameter 6 mm×length 10 mm). Time consumed until the sample was completely dissolved was measured wile observing the dissolving state every 30 seconds with naked eyes.
The solubility test described above was carried out for a DXR.USP standard product (Lot J) (average particle diameter: 28 μm) as comparison and Examples 2, 46,51, 55, 56, 57 and 58, and the results thereof are shown in Table III.

[2] = Average particle diameter, microscopic method (Heywood circle-corresponding diameter); settings: 10 typical crystals on photograph, hydrochloride
Description: The average particle diameter is shown by a diameter of a circle having the same area as an injected area of the particle, a so-called Heywood diameter (circle-corresponding diameter) according to a microscopic method (injected image). A small amount of the crystals was put on a slide glass, and 1 to 2 drops of a hydrophilic surfactant (sesquioleic acid sorbitan) were fallen thereon to disperse them. It was photographed by means of a polarization microscope (photographing lens: 3.3 magnifications, objective lens: 20 magnifications) equipped with a photographing device. Optional 10 pieces of the typical crystals were selected on the photograph to measure a long diameter and a short diameter thereof An (projected) area of the particle was shown by long diameter×short diameter, and the particle diameter was shown by a diameter of a circle having the same area as that obtained above.

[3] = Hygroscopicity, cup method (weight change); settings: weight-increasing rate, 25° C., 50 to 60% RH, 15 minutes; crystals dried at 40° C. under vacuum; hydrochloride
Description: Determined by the following cup method. To be specific, about 15 to 20 mg of the sample was put in a cylindrical cup having a diameter of 6 mm and a depth of 6 mm and left standing at a fixed temperature (25° C.) and relative humidity (50 to 60% RH) for 15 minutes to measure a weight change, whereby the hygroscopicity was evaluated.
In the following respective examples, a weight-increasing rate of 0.40% or more is shown by an evaluation criterion that the hygroscopicity is large (−); a weight-increasing rate of 0.20% or more and less than 0.40% is shown by an evaluation criterion that the hygroscopicity is ;intermediate (±); and a weight-increasing rate of less than 0.20% is shown by an evaluation criterion that the hygroscopicity is small: (+).

Dissolving time [1]	Average particle diameter ([2]; listed as DXR.USP standard product (Lot J)) [μm]	Average particle diameter [2] [μm]	SMILES	Hygroscopicity [3]
3-3.5* minute	28		COc1cccc2c1C(=O)c1c(O)c3c(c(O)c1C2=O)C[C@@](O)(C(=O)CO)C[C@@H]3O[C@H]1C[C@H](N)[C@H](O)[C@H](C)O1 [DXR.USP (comparison), doxorubicin hydrochloride]	
4 to 4.5 min		<4	COc1cccc2c1C(=O)c1c(O)c3c(c(O)c1C2=O)C[C@@](O)(C(=O)CO)C[C@@H]3O[C@H]1C[C@H](N)[C@H](O)[C@H](C)O1 [Example 2, doxorubicin hydrochloride]	− (a weight-increasing rate of 0.40% or more is shown by an evaluation criterion that the hygroscopicity is large (−))
		28	COc1cccc2c1C(=O)c1c(O)c3c(c(O)c1C2=O)C[C@@](O)(C(=O)CO)C[C@@H]3O[C@H]1C[C@H](N)[C@H](O)[C@H](C)O1 [Example 38, doxorubicin hydrochloride]	+ (a weight-increasing rate of less than 0.20% is shown by an evaluation criterion that the hygroscopicity is small: (+))
		18	COc1cccc2c1C(=O)c1c(O)c3c(c(O)c1C2=O)C[C@@](O)(C(=O)CO)C[C@@H]3O[C@H]1C[C@H](N)[C@H](O)[C@H](C)O1 [Example 40, doxorubicin hydrochloride]	± (a weight-increasing rate of 0.20% or more and less than 0.40% is shown by an evaluation criterion that the hygroscopicity is ;intermediate (±))
		34	COc1cccc2c1C(=O)c1c(O)c3c(c(O)c1C2=O)C[C@@](O)(C(=O)CO)C[C@@H]3O[C@H]1C[C@H](N)[C@H](O)[C@H](C)O1 [Example 42, doxorubicin hydrochloride]	+ (a weight-increasing rate of less than 0.20% is shown by an evaluation criterion that the hygroscopicity is small: (+))
		28	COc1cccc2c1C(=O)c1c(O)c3c(c(O)c1C2=O)C[C@@](O)(C(=O)CO)C[C@@H]3O[C@H]1C[C@H](N)[C@H](O)[C@H](C)O1 [Example 44, doxorubicin hydrochloride]	+ (a weight-increasing rate of less than 0.20% is shown by an evaluation criterion that the hygroscopicity is small: (+))
		46	COc1cccc2c1C(=O)c1c(O)c3c(c(O)c1C2=O)C[C@@](O)(C(=O)CO)C[C@@H]3O[C@H]1C[C@H](N)[C@H](O)[C@H](C)O1 [Example 45, doxorubicin hydrochloride]	+ (a weight-increasing rate of less than 0.20% is shown by an evaluation criterion that the hygroscopicity is small: (+))
1.5 to 2 min		86	COc1cccc2c1C(=O)c1c(O)c3c(c(O)c1C2=O)C[C@@](O)(C(=O)CO)C[C@@H]3O[C@H]1C[C@H](N)[C@H](O)[C@H](C)O1 [Example 46, doxorubicin hydrochloride]	+ (a weight-increasing rate of less than 0.20% is shown by an evaluation criterion that the hygroscopicity is small: (+))
		60	COc1cccc2c1C(=O)c1c(O)c3c(c(O)c1C2=O)C[C@@](O)(C(=O)CO)C[C@@H]3O[C@H]1C[C@H](N)[C@H](O)[C@H](C)O1 [Example 47, doxorubicin hydrochloride]	± (a weight-increasing rate of 0.20% or more and less than 0.40% is shown by an evaluation criterion that the hygroscopicity is ;intermediate (±))
		89	COc1cccc2c1C(=O)c1c(O)c3c(c(O)c1C2=O)C[C@@](O)(C(=O)CO)C[C@@H]3O[C@H]1C[C@H](N)[C@H](O)[C@H](C)O1 [Example 48, doxorubicin hydrochloride]	+ (a weight-increasing rate of less than 0.20% is shown by an evaluation criterion that the hygroscopicity is small: (+))
		71	COc1cccc2c1C(=O)c1c(O)c3c(c(O)c1C2=O)C[C@@](O)(C(=O)CO)C[C@@H]3O[C@H]1C[C@H](N)[C@H](O)[C@H](C)O1 [Example 49, doxorubicin hydrochloride]	+ (a weight-increasing rate of less than 0.20% is shown by an evaluation criterion that the hygroscopicity is small: (+))
1.5 to 2 min		73	COc1cccc2c1C(=O)c1c(O)c3c(c(O)c1C2=O)C[C@@](O)(C(=O)CO)C[C@@H]3O[C@H]1C[C@H](N)[C@H](O)[C@H](C)O1 [Example 51, doxorubicin hydrochloride]	+ (a weight-increasing rate of less than 0.20% is shown by an evaluation criterion that the hygroscopicity is small: (+))
1.5 to 2 min		24	COc1cccc2c1C(=O)c1c(O)c3c(c(O)c1C2=O)C[C@@](O)(C(=O)CO)C[C@@H]3O[C@H]1C[C@H](N)[C@H](O)[C@H](C)O1 [Example 55, doxorubicin hydrochloride]	+ (a weight-increasing rate of less than 0.20% is shown by an evaluation criterion that the hygroscopicity is small: (+))
1.5 to 2 min		37	COc1cccc2c1C(=O)c1c(O)c3c(c(O)c1C2=O)C[C@@](O)(C(=O)CO)C[C@@H]3O[C@H]1C[C@H](N)[C@H](O)[C@H](C)O1 [Example 56, doxorubicin hydrochloride]	+ (a weight-increasing rate of less than 0.20% is shown by an evaluation criterion that the hygroscopicity is small: (+))
1.5 to 2 min		35	COc1cccc2c1C(=O)c1c(O)c3c(c(O)c1C2=O)C[C@@](O)(C(=O)CO)C[C@@H]3O[C@H]1C[C@H](N)[C@H](O)[C@H](C)O1 [Example 57, doxorubicin hydrochloride]	± (a weight-increasing rate of 0.20% or more and less than 0.40% is shown by an evaluation criterion that the hygroscopicity is ;intermediate (±))
14.5 to 15 min		<4	COc1cccc2c1C(=O)c1c(O)c3c(c(O)c1C2=O)C[C@@](O)(C(=O)CO)C[C@@H]3O[C@H]1C[C@H](N)[C@H](O)[C@H](C)O1 [Example 58, doxorubicin hydrochloride]	− (a weight-increasing rate of 0.40% or more is shown by an evaluation criterion that the hygroscopicity is large (−))
		<4	COc1cccc2c1C(=O)c1c(O)c3c(c(O)c1C2=O)C[C@@](O)(C(=O)CO)C[C@@H]3O[C@H]1C[C@H](N)[C@H](O)[C@H](C)O1 [Example 59, doxorubicin hydrochloride]	− (a weight-increasing rate of 0.40% or more is shown by an evaluation criterion that the hygroscopicity is large (−))
